What was measured:
[1] = test system: primary cells from voided urine; experiment: Capture of primary cells from voided urine on peptide coated glass slide; assay type: cell-based, human; conditions: for Number of captured basal and intermediate cells/peptide coated area / Number of captured superficial and squamous cells/peptide coated area: cells from 40 mL voided urine, entire peptide coated area 2.67 cm^2, H&E, bright field; for peptide selectivity: preferential capture of cell type: primary cells from voided urine
Protocol: (§1) Peptides were synthesized in a conjugatable format for unidirectional conjugation to glass. Peptides were attached to glass through a covalent bond formed between the lysine on C-terminus of the peptide and an N-Hydroxysuccinimide (NHS) group on the glass. Briefly, microscope glass slides functionalized with NHS groups ((MICROSURFACES, Inc)) were incubated with peptide solution at 200 μM for 2 hours at 30° C., ˜75% RH. At the end of the incubation the slides were washed 3 times for 5 min in washing buffer (1×PBS, 0.05% Tween 20) and subsequently deactivated in deactivation solution (MICROSURFACES, Inc) for 30 min at 30° C., ˜75% RH to deactivate any remaining uncoupled NHS groups. Eventually slides were washed twice for 5 min in washing buffer prior to being blocked for 1 hour in blocking buffer (PBS, 0.5% BSA, 2 mM EDTA).
(§2) Microscope glass slides with discrete areas functionalized with peptide were used as diagnostic cell capture devices as shown in FIG. 1. Cells used were cultured cell lines established from human transitional bladder carcinomas (J82, ATCC HTB-1 and T24, ATCC HTB-4), cells isolated from voided urine of healthy donors (primary cells), a cultured cell line established from human thyroid carcinoma (SW579) or white blood cells (WBC) obtained from human whole blood by lysing red blood cells.
(§3) Cell suspension was prepared in cell capture buffer (PBS, 0.5% BSA, 2 mM EDTA, 0-200 mM glucose) and applied directly to a peptide functionalized slide in which peptide was attached to a glass slide using the N-Hydroxysuccinimide chemistry described in Example 4 with a pipetting device. The cells were incubated on the slide for 15 min and then drained by tipping the slide to the side. The slides were washed by dipping in wash buffer (PBS, 0.5% BSA, 2 mM EDTA) to wash away unbound cells. Slides were fixed in paraformaldehyde, dried, stained (H&E) and cover slipped for microscopic examination in a bright field. For fluorescent microscopy the cells were labeled with fluorescent dyes (CELLTRACKER Green or Red; LIFE TECHNOLOGIES, INC) prior to applying to the slide. Following the 15 min incubation the slides were washed, fixed, dried and mounted with a fluorescent mounting medium for microscopic examination in a dark field.
(§4) Selective capture of urothelial cells, J82, was achieved from a mixture of J82 and white blood cells (WBC) on a peptide coated glass slide using cell binding peptides of the present disclosure. In this Example, peptides were synthesized with a C-terminal Peg10 spacer followed by a lysine and conjugated to the glass slide according to Example 4.
In another experiment, primary cells from voided urine were selectively captured onto peptide coated glass slides. Specifically, cells were isolated from 40 mL of voided urine from a second morning void and applied to a glass slide with a discrete area coated with peptide. Cells were visualized by H&E staining and counted in a bright field. Results are presented in Table 3 below as a cell number per the entire peptide coated area (2.67 cm^2). […] The sample adequacy criterion for urine cytology is at least 15 well visualized basal or intermediate cells^1.

[2] = test system: J82 urothelial cancer cells; experiment: Selective capture of J82 urothelial cells from a mixture of J82 and white blood cells on peptide coated glass slide; assay type: cell-based, human
Protocol: as §1, §2, §3, §4
The cell binding peptides used in a first experiment were SEQ ID NO: 1, SEQ ID NO: 2, SEQ ID NO: 3, and SEQ ID NO: 4. […] Human WBC and J82 cells were labeled with different CELLTRACKER dyes, mixed at a 1 to 1 ratio and applied to a slide with discrete areas coated with peptides. The slide was washed of unbound cells and captured cells were counted under a fluorescent microscope. Data are presented in FIGS. 5A & 5B as cell number per microscope field at 100× magnification averaged from 10 fields. The slide area not coated with peptide was used as a negative control. Preferential capture of J82 urothelial cells was observed leading to depletion of WBC up to 85%. […] Thus the degree of WBC removal from the diagnostic sample can be controlled by using a peptide most suitable for the application. For example, in some circumstances the presence of some WBCs on the slide may provide valuable clinical information.
In another experiment, selective capture of urothelial cancer cells, J82, was achieved from a mixture of J82 and WBC on a peptide coated glass slide using peptides SEQ ID NO: 5, SEQ ID NO: 6, and SEQ ID NO: 7. […] Human WBC and J82 cells were labeled with different CELLTRACKER dyes, mixed at 7 to 1 ratio and applied to a slide with discrete areas coated with peptides. The slide was washed of unbound cells and captured cells were counted under a fluorescent microscope. […]

[3] = test system: J82 urothelial cancer cells; experiment: Selective capture of J82 urothelial cancer cells from voided urine spiked with whole blood on peptide coated slide; assay type: cell-based, human; conditions: voided urine spiked with whole blood and J82 cells; H&E staining, 100x
Protocol: as §2
as §3, with “The” for “Cell suspension was prepared in cell capture buffer (PBS, 0.5% BSA, 2 mM EDTA, 0-200 mM glucose) and applied directly to a peptide functionalized slide in which peptide was attached to a glass slide using the N-Hydroxysuccinimide chemistry described in Example 4 with a pipetting device. The”
In this Example, peptides were synthesized with a C-terminal Peg10 spacer followed by a lysine and conjugated to the glass slide according to Example 4.
In another experiment urothelial cancer cells from voided urine were selectively captured using peptide SEQ ID NO: 5. […]

J82 bladder cancer cells = experiment: Capture of cultured J82 tumor cells from urine with biotinylated cell binding peptide on streptavidin magnetic beads; assay type: cell-based, human; conditions: for J82 bladder tumor cells: cells captured on peptide-magnetic bead conjugate from 5 ml human urine, leukocyte:J82 mixture 12.5:1 to 20:1, unit not given; for Enrichment Factor: ratio J82:total leukocytes after capture divided by ratio before capture, urine
Protocol: (§5) A green fluorescent leukocyte preparation was prepared as follows. Red blood cells in 2 ml anti-coagulated human blood were lysed by the addition of 30 ml of a hypotonic medium and incubation for 10 min at room temperature. Intact cells and debris were recovered by centrifugation at 300×g. Pelleted material was resuspended with PBS/0.5% BSA/2 mM EDTA and filtered through a 100 micron nylon filter. Leukocytes (3×10^6) were labeled with 5 μM Cell Tracker Green CMFDA (LIFE TECHNOLOGIES/MOLECULAR PROBES) in EMEM growth medium without serum for 45 min. Excess dye was removed by centrifugation at 500×g for 5 min and washing with PBS/0.5% BSA/2 mM EDTA and cells were exposed to 10% serum containing medium for 45 min to allow dye conversion.
(§6) Red fluorescent J82 cells were prepared as follows: An 80% confluent culture of J82 bladder cancer cells was labeled with 5 μM Cell Tracker Red CMPTX (LIFE SCIENCES/MOLECULAR PROBES) in EMEM growth medium without serum for 90 min. Excess dye was removed by washing the flask with EMEM/10% FBS and cells were exposed to 10% serum containing medium for 1.5 h for dye conversion. The cells were then washed with PBS and released from the flask with 0.05% trypsin. Cells were recovered and trypsin removed by centrifugation at 500×g followed by washing in PBS/0.5% BSA/2 mM EDTA.
Biotinylated peptides SEQ ID NO: 1 and SEQ ID NO: 10 were synthesized with a C-terminal Peg10 group attached to a lysine as described in Example 1. The biotinylated peptides were conjugated to magnetic microbeads (MILTENYI) by incubating 400 μl of bead suspension in 20 μM peptide for 30 min on ice with occasional mixing. Unbound peptide was removed by binding the beads to a Miltenyi MS column placed in a magnetic field. Beads were washed with PBS/0.5% BSA/2 mM EDTA and peptide conjugated beads released by removing the Miltenyi MS column from the magnetic field. A mixture of green fluorescent leukocytes and red fluorescent J82 bladder cancer cells was variously prepared in ratios between 12.5:1 and 20:1. The cell mixture (725,000 cells total) was added to 5 ml human urine and then 250 μl of peptide-magnetic bead conjugate. The whole was incubated for 45 min at room temperature with rotation.
To capture cells the peptide-magnetic bead cell mixture was passed over a Miltenyi MS column pre-equilibrated with PBS/0.5% BSA/2 mM EDTA and held in a magnetic field. Unbound cells were washed out with PBS/0.5% BSA/2 mM EDTA and retained. Cells bound to the peptide-magnetic bead conjugate were released from the Miltenyi MS column by removing the column from the magnetic field. […] The data in FIG. 3 and Table 2 below show a 463-fold to 588-fold enrichment of J82 cells from leukocytes in urine. […]

blood leukocytes = experiment: Capture of leukocytes from urine with biotinylated cell binding peptide on streptavidin magnetic beads (same test, obscuring cells); assay type: cell-based; conditions: cells captured on peptide-magnetic bead conjugate from 5 ml human urine; leukocyte:J82 mixture 12.5:1 to 20:1; unit not given
Protocol: as §5
as §6, with “EDTA. […]” for “EDTA.”

thyroid cancer cells = experiment: Selective capture of thyroid cancer cells spiked with whole blood on peptide coated slide; assay type: cell-based, human; conditions: H&E staining, 200x
Protocol: as §2
as §3, with “Following the 15 min incubation the slides were washed, fixed, dried and mounted with a fluorescent mounting medium for microscopic examination in a dark field.” left out

[4] = test system: SW579 thyroid cancer cells; experiment: Selective capture of SW579 thyroid cells from a mixture of SW579 and WBC on peptide coated glass slide; assay type: cell-based, human; conditions: WBC:SW579 1 to 1; compared with SEQ ID NO: 4 and SEQ ID NO: 1
Protocol: as §1
Microscope glass slides with discrete areas functionalized with peptide were used as diagnostic cell capture devices as shown in FIG. 1. […]
In a first experiment peptides SEQ ID NO: 1, SEQ ID NO: 2, SEQ ID NO: 3 and SEQ ID NO: 4 were tested and peptide SEQ ID NO: 10 was used as a positive control. […] The slide was washed of unbound cells and captured cells were counted under a fluorescent microscope. […]

[5] = WBC:J82 7 to 1, compared with SEQ ID NO: 7
[6] = WBC:J82 1 to 1, compared with SEQ ID NO: 1 and SEQ ID NO: 4
[7] = J82 (100, 500 or 1000 cells) and WBC mixed 1:72, 15 min incubation

SSVALSFQAVPYDFHSSR [SEQ ID NO: 5]
Number of captured basal and intermediate cells/peptide coated area [1]: 40 cells/peptide coated area
Number of captured superficial and squamous cells/peptide coated area [1]: 19 cells/peptide coated area
peptide selectivity: preferential capture of cell type [1]: deep urothelial cells
capture selectivity (WBC to J82 end ratio) [2, 5]: more selective
selective capture of urothelial cancer cells, slide washed [3]: Blood cells are washed away and urothelial cells retained

SSVQHAYQAWPGLGAYTSR [SEQ ID NO: 6]
Number of captured basal and intermediate cells/peptide coated area [1]: 5 cells/peptide coated area
Number of captured superficial and squamous cells/peptide coated area [1]: 35 cells/peptide coated area
peptide selectivity: preferential capture of cell type [1]: superficial and squamous cells
capture selectivity (WBC to J82 end ratio) [2, 5]: more selective

SFCPSNHDCIDWFIRSR [SEQ ID NO: 10, used as positive control in the thyroid test]
J82 bladder tumor cells (J82 bladder cancer cells): 53.6
Enrichment Factor (J82 bladder cancer cells): 588
Total Blood Leukocytes (blood leukocytes): 0.09

SSLESVKEPWGPGWIPVSR [SEQ ID NO: 3]
selective capture of thyroid cancer cells, slide washed (thyroid cancer cells): Blood cells are washed away and thyroid cells retained
capture selectivity (WBC to J82 end ratio) [2, 6]: more selective
capture selectivity (WBC to SW579 end ratio) [4]: more selective

SSIEDLPKDWPLFGWMSSR [SEQ ID NO: 2]
depletion of WBCs from the input material [2, 7]: 86%
reduction in WBCs relative to urothelial cells [2, 7]: 7.6 fold
capture selectivity (WBC to J82 end ratio) [2, 6]: more selective
capture selectivity (WBC to SW579 end ratio) [4]: more selective

SSFGSDCSPWGCEWVPVSR [SEQ ID NO: 4]
Number of captured basal and intermediate cells/peptide coated area [1]: 21 cells/peptide coated area
Number of captured superficial and squamous cells/peptide coated area [1]: 6 cells/peptide coated area
peptide selectivity: preferential capture of cell type [1]: deep urothelial cells

SSFSNYDSPWGPNWSVISR [SEQ ID NO: 1]
J82 bladder tumor cells (J82 bladder cancer cells): 48.2
Enrichment Factor (J82 bladder cancer cells): 463
Total Blood Leukocytes (blood leukocytes): 0.1

Reference: patent US9279810B2, “Cell binding peptides for diagnosis and detection” (Affinergy, LLC, priority 2013, dated 2016)
